From US5854388A, “Angiotensin IV peptides and receptor” (Washington State University Research Foundation, priority 1994, dated 1998)
“Also recorded” adds a separate entry of the source. Like-named read-outs stand apart in the source and are kept apart here. Positions of bridges follow the written chain, without caps; N, C: chain ends. Non-standard residues stand in square brackets, D forms with d. Residues, ends and D or L forms follow the SMILES beside them. No end group written: not given here. *: point of attachment. Ileψ(thiazoline)Cys = CC[C@H](C)[C@H](N)C1=N[C@H](C(=O)*)CS1; NMeI = CC[C@H](C)[C@H](NC)C(=O)O; dOrn = NCCC[C@@H](N)C(=O)O; Nle = CCCC[C@H](N)C(=O)O; Orn = NCCC[C@H](N)C(=O)O; GABA = NCCCC(=O)O

Key:
[1] = biological target: T1, AT4 receptor (Bos taurus, UniProt F1N1Q8); assay: 125I-AIV binding and competition, bovine adrenal cortical membranes
T1 sequence (F1N1Q8 1-1022): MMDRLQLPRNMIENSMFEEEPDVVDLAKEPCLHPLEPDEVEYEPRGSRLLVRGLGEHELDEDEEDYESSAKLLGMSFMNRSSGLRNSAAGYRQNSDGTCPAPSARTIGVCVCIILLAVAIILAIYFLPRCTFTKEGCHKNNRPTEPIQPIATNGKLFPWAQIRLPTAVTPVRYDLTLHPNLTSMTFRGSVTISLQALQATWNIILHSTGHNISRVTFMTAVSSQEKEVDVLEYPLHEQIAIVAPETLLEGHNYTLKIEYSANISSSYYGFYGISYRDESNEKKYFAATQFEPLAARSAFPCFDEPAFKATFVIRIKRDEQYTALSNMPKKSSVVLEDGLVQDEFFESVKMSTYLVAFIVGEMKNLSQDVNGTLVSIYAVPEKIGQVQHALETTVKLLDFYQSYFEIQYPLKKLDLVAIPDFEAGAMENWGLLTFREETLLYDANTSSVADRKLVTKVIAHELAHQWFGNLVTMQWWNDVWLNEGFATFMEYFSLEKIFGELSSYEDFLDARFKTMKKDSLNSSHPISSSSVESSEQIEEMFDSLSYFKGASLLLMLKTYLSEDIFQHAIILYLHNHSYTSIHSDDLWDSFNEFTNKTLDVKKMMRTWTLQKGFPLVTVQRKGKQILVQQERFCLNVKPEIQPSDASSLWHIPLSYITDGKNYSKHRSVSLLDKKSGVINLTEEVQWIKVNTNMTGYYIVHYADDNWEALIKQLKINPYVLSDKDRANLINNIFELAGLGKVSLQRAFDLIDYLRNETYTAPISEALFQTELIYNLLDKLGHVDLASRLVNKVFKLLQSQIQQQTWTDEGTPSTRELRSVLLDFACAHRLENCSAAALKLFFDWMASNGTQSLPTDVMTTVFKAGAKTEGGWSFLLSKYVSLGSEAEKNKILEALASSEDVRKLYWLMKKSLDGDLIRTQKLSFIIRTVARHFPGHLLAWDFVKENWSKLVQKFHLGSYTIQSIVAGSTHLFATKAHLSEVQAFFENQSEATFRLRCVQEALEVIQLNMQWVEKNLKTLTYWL

[2] = biological target: T1, AT4 receptor; assay: 125I-AIV binding and competition, solubilized bovine adrenal cortical receptor
[3] = test system: rat kidney; assay: Renal cortical blood flow (laser doppler) and arterial pressure after infusion into the renal artery; assay type: in vivo
[4] = biological target: T1, AT4 receptor; assay: 125I-AIV binding and competition, coronary venular endothelial cell (CVEC) membranes; parameters: species or system bovine
[5] = biological target: T2, AT1 receptor (AII receptor) (Bos taurus, UniProt P25104); assay type: binding, bovine; settings: competition
T2 construct: from tissue; host or cells: bovine adrenal cortex membranes
T2 sequence (P25104 1-359): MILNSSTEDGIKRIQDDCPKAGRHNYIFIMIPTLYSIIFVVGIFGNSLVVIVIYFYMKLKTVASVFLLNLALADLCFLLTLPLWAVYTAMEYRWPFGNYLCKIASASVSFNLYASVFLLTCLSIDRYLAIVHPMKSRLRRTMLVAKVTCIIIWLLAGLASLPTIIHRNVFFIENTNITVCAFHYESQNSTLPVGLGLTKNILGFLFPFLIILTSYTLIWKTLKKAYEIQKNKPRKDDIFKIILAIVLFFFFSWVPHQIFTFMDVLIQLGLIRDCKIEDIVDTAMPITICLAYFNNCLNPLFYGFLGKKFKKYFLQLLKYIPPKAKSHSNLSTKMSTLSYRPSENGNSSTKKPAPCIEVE

[6] = arterial and venous blood in man; cited from earlier work
[7] = Metabolism by rat kidney membranes / homogenates
[8] = read-out: 125I-AIV Binding (Ki)

V1 Y2 I3 H4 P5 F6 H7 L8 (VYIHPFHL) [AI(3-10)]
decrease in binding affinity relative to AIV [1]: 2 fold

VF2 IHPF (VFIHPF)
binding affinity for the AT4 receptor (in words) [1]: very low affinity

V[D-Y2 ]IHPF [D-Y2 AIV]
binding affinity for the AT4 receptor (in words) [1]: very low affinity; also recorded: low binding affinity
Ki ([2]; read-out: Ki): 416 nM

IYIHPF [I1 YIHPF]
binding affinity for the AT4 receptor (in words) [1]: only a slight change (an increase) in binding affinity; also recorded: nearly the same binding affinity

CC[C@H](C)[C@H](NC(=O)[C@@H](N)Cc1ccc(O)cc1)C(=O)N[C@@H](Cc1c[nH]cn1)C(=O)N1CCC[C@H]1C(=O)N[C@@H](Cc1ccccc1)C(=O)O [AII(4-8), YIHPF] (H-YIHPF-OH; N-terminus and C-terminus assumed)
decrease in binding affinity relative to AIV [1]: 1000 fold

NleYIHPF ([Nle]YIHPF)
maximum increase in renal blood flow ([3]; 0.05 pmole): 19%
maximum increase in renal blood flow ([3]; 0.1 pmole): 19%
maximum increase in renal blood flow ([3]; 10 pmole): 21%
increase in renal blood flow ([3]; 100 pmole): 30%
effect on arterial blood pressure (in words) ([3]; rat, in vivo): no effect on mean arterial pressure
agonist / antagonist activity (in words) ([3]; renal blood flow response compared to AIV, listed as Nle1 -AIV): only a partial agonist
agonist / antagonist activity (in words) ([3]; renal blood flow response compared to AIV, listed as Nle1 YIHPF): partial agonist

CC[C@H](C)[C@H](NC)C(=O)N[C@@H](Cc1ccc(O)cc1)C(=O)N[C@H](C(=O)N[C@@H](Cc1c[nH]cn1)C(=O)N1CCC[C@H]1C(=O)N[C@@H](Cc1ccccc1)C(=O)O)[C@@H](C)CC [CH3 -I1 YIHPF, N-methyl-Ile1 YIHPF] (H-[NMeI]YIHPF-OH)
decrease in affinity relative to I1YIHPF ([1]; N-methylation of Ile1): 67 fold

VYIHP [des Phe6 -AIV]
binding affinity for the AT4 receptor (in words) [1]: did not alter binding significantly
binding affinity for the AT4 receptor (in words) ([1]; listed as V1 Y2 I3 H4 P5): does not alter binding significantly
binding to solubilized AT4 receptor (in words) ([2]; listed as VYIHP): retained AT4 receptor binding activity
binding to solubilized AT4 receptor (in words) ([2]; listed as desPhe6 -AIV): still retained AIV binding activity
increase in Ki (decrease in affinity) compared with AIV [4]: 7 fold
Ki ([4]; competition of 0.5 nM 125I-AIV, read-out: Ki): 7.3 ± 1.2 nM

VYIHPI [VYIHPI6]
binding affinity for the AT4 receptor (in words) [1]: higher affinity than the parent VYIHPF; also recorded: higher binding affinity for the AT4 receptor than AIV

VYIH
decrease in binding relative to VYIHP [1]: 21 fold
Ki ([1]; read-out: Ki): > 500 nM

DYIHPF
Kd [1]: > 1000 nM
binding affinity for the AT4 receptor (in words) [1]: virtually no affinity

KYIHPI [KYIHPI6]
binding affinity for the AT4 receptor (in words) [1]: lower affinity than the parent KYIHPF6
binding affinity for the AT4 receptor (in words) ([1]; listed as Lys1 Ile6 -AIV): lower affinity than Lys1 -AIV

CC[C@H](C)[C@H](N)C1=N[C@H](C(=O)N[C@@H](CC(C)C)C(=O)N[C@H](CCC(=O)O)C(=O)N[C@H](C(=O)N[C@H]2CCCCNC(=O)[C@H](CC(N)=O)NC(=O)[C@@H](CC(=O)O)NC(=O)[C@H](Cc3cnc[nH]3)NC(=O)[C@@H](Cc3ccccc3)NC(=O)[C@H]([C@@H](C)CC)NC(=O)[C@@H](CCCN)NC2=O)[C@@H](C)CC)CS1 [Bacitracin, ICLEIKOIFHDD, reference compound] ({Ileψ(thiazoline)Cys}-L[dE]IK[dOrn]I[dF]H[dD]N; lactam 4-C)
effect on binding of AIV ligand to the AT4 receptor [1]: inhibited

V1 Y2 I3 H4 P5 F6 H7 (VYIHPFH) [AI(3-9)]
binding affinity for the AT4 receptor (in words) [1]: did not alter binding significantly
binding affinity for the AT4 receptor (in words) ([1]; listed as V1 Y2 I3 H4 P5 F6 H7): does not alter binding

OrnYIHPF ([Orn]YIHPF)
binding affinity for the AT4 receptor (in words) [1]: higher binding affinity than AIV

CCCCc1nc(Cl)c(CO)n1Cc1ccc(-c2ccccc2-c2nn[nH]n2)cc1 [DuP 753, reference compound]
Ki [1, 8]: > 100000 nM
Ki [2]: > 100000 nM
Ki ([4]; unit inferred): > 100000 nM
Ki [5]: 31 nM

GABA-YIHPF ([GABA]YIHPF)
decrease in binding affinity relative to AIV [1]: 250 fold

VPIHYF [Phe2 Tyr6 AIV, positions of the Phe and Tyr residues in AIV reversed]
binding affinity for the AT4 receptor (in words) [1]: very low binding affinity

F1 YIHPF (FYIHPF)
decrease in binding affinity relative to AIV [1]: 4 fold

CC[C@H](C)[C@H](NC(=O)[C@@H](N)Cc1ccc(O)cc1)C(=O)N[C@@H](Cc1cnc[nH]1)C(=O)N1CCC[C@H]1C(=O)N[C@@H](Cc1ccccc1)C(=O)O [AII(4-8), YIHPF] (H-YIHPF-OH)
Ki [1, 8]: > 1000 nM
Ki [2]: > 1000 nM
half-lives [6]: 2.4 min
Ki ([4]; competition of 0.5 nM 125I-AIV): 253 ± 89.1 nM

PYIHPF
decrease in binding affinity relative to AIV [1]: 8 fold

^+ H3 N-Val(CH2 NH)Tyr-Val(CH2 NH)-His-Pro-Phe-COO^- (H-VYVHPF-OH; also: reduced CH2-NH bonds: Val1-Tyr2, Val3-His4) [Val1 Val3 AIV]
binding affinity for the AT4 receptor (in words) [1]: affinity equal to or better than VYIHPF; also recorded: equal or better affinity than AIV
Ki ([2]; read-out: Ki): 1.29 nM
agonist / antagonist activity (in words) ([3]; rat, in vivo): potent antagonist of AT4 receptor activity
effect of preinfusion on blood flow response to another ligand ([3]; rat, in vivo): completely blocks Lys^1 AIV-induced increases in blood flow
effect on arterial blood pressure (in words) ([3]; rat, in vivo): did not alter blood pressure or renal blood flow
effect on renal blood flow (in words) ([3]; rat, in vivo): did not alter blood pressure or renal blood flow
stability on exposure to rat kidney (in words) [7]: totally resistant to enzymatic degradation
stability on exposure to rat kidney (in words) ([7]; listed as divalinal AIV): enhanced metabolic stability
remaining intact ([7]; rat kidney membranes, 4 hr, room temperature): 100%
